Each molecule was assayed against T1, Full-length USP19 (Homo sapiens, UniProt O94966) (assay: USP19 fluorescence polarisation (FP) homogeneous assay with Ubiquitin-Lys-TAMRA substrate). Details: 2.5 nM USP19, 30 min pre-incubation, average of at least two duplicate experiments.
T1 construct: Full-length USP19 was purchased from Boston Biochem (E-576); purchased Boston Biochem E-576
T1 sequence (O94966 1-1318): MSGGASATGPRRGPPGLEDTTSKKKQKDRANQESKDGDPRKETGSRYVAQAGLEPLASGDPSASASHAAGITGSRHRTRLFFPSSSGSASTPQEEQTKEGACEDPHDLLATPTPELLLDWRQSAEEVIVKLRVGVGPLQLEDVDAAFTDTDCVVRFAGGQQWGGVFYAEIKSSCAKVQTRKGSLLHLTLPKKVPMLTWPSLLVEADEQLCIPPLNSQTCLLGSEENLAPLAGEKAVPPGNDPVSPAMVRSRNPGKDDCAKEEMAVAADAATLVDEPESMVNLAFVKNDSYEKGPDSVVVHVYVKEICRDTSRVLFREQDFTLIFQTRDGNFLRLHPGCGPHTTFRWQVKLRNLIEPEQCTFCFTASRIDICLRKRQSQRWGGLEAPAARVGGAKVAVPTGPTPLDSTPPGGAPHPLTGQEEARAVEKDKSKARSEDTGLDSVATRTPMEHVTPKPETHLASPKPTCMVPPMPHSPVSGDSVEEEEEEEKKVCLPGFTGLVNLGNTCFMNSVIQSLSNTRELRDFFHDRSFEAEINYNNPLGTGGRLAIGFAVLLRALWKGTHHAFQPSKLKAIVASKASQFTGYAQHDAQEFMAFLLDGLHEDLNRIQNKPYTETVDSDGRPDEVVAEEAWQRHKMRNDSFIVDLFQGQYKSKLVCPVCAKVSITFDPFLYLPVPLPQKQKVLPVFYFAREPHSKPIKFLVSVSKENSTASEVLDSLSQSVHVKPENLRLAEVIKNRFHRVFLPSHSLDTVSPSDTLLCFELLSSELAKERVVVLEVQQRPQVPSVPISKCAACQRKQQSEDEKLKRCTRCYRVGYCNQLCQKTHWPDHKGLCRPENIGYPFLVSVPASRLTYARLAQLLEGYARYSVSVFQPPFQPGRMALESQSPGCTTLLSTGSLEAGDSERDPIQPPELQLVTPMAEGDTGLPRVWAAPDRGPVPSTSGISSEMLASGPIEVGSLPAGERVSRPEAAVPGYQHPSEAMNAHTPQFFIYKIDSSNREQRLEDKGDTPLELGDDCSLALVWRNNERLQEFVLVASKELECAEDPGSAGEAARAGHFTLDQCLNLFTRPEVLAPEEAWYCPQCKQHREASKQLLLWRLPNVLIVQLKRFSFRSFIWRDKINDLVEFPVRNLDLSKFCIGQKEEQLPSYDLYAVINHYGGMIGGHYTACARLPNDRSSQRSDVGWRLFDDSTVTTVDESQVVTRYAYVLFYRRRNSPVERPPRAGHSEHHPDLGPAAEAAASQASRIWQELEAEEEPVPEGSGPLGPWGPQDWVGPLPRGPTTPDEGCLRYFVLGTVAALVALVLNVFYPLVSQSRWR
Type: biochemical
Summary of the method: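 Full-length USP19 preincubated 30 min at RT with inhibitor (200 μM to 2 μM series, 8–18 points) before adding 500 nM Ubiquitin-Lys-TAMRA substrate.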

| Structure (SMILES) | IC50 [nM] |
| --- | --- |
| C[C@@]1(c2ccccc2)CNCCN1C(=O)N1CC[C@@](O)(Cn2cnc(-c3ccccc3)cc2=O)C2(CCCC2)C1 [Example 390, 3-(((S)-10-Hydroxy-7-((R)-2-methyl-2-phenylpiperazine-1-carbonyl)-7-azaspiro[4.5]decan-10-yl)methyl)-6-phenylpyrimidin-4(3H)-one] | < 500 |
| O=C(N1CC[C@@](O)(Cn2cnc(Cl)cc2=O)C2(CCCC2)C1)N1CCOC[C@H]1c1ccccc1 [Example 220, 6-Chloro-3-(((S)-10-hydroxy-7-((R)-3-phenylmorpholine-4-carbonyl)-7-azaspiro[4.5]decan-10-yl)methyl)pyrimidin-4(3H)-one] | < 500 |
| C[C@H](CC1CCCCC1)C(=O)N1CCC(O)(Cn2cnc3[nH]ccc3c2=O)C2(CCCC2)C1 (stereo partly drawn) [Example 53, 3-((7-((R)-3-Cyclohexyl-2-methylpropanoyl)-10-hydroxy-7-azaspiro[4.5]decan-10-yl)methyl)-3,7-dihydro-4H-pyrrolo[2,3-d]pyrimidin-4-one] | 5000 to 50000 |
| Cc1nc2ccccc2c(=O)n1CC1(O)CCN(C(=O)[C@H](C)CC2CCCCC2)CC12CCCC2 (stereo partly drawn) [Example 120, 3-((7-((R)-3-Cyclohexyl-2-methylpropanoyl)-10-hydroxy-7-azaspiro[4.5]decan-10-yl)methyl)-2-methylquinazolin-4(3H)-one] | 500 to 5000 |
| C[C@H](CC(F)(F)F)C(=O)N1CCC(O)(CN2CCN(c3ccccn3)CC2=O)C2(CCCC2)C1 (stereo partly drawn) [Example 113, 1-((10-Hydroxy-7-((R)-4,4,4-trifluoro-2-methylbutanoyl)-7-azaspiro[4.5]decan-10-yl)methyl)-4-(pyridin-2-yl)piperazin-2-one] | < 500 |
| C[C@H](CC1CCCCC1)C(=O)N1CCC(O)(Cn2cc(-c3ccn[nH]3)ncc2=O)C(C)(C)C1 (stereo partly drawn) [Example 17, 1-((1-((R)-3-Cyclohexyl-2-methylpropanoyl)-4-hydroxy-3,3-dimethylpiperidin-4-yl)methyl)-5-(1H-pyrazol-5-yl)pyrazin-2(1H)-one] | 500 to 5000 |
| CC1CCCN1C(=O)N1CCC(O)(Cn2cnc(-c3ccccc3)cc2=O)C2(CCCC2)C1 (stereo not drawn) [Example 233, 3-((10-Hydroxy-7-(2-methylpyrrolidine-1-carbonyl)-7-azaspiro[4.5]decan-10-yl)methyl)-6-phenylpyrimidin-4(3H)-one] | 5000 to 50000 |
| O=C(N1CCC(O)(Cn2cnc(-c3ccccc3)cc2=O)C2(CCCC2)C1)N1CCCC1c1cccnc1 (stereo not drawn) [Example 245, 3-((10-Hydroxy-7-(2-(pyridin-3-yl)pyrrolidine-1-carbonyl)-7-azaspiro[4.5]decan-10-yl)methyl)-6-phenylpyrimidin-4(3H)-one] | 500 to 5000 |
| O=C(N1CC[C@@](O)(Cn2cnc(-c3ccccc3F)cc2=O)C2(CCCC2)C1)N1CCNC[C@H]1c1cc(F)ccc1F [Example 387, 3-(((S)-7-((R)-2-(2,5-Difluorophenyl)piper-azine-1-carbonyl)-10-hydroxy-7-azaspiro[4.5]decan-10-yl)methyl)-6-(2-fluorophenyl)pyrimi-din-4(3H)-one] | < 500 |
| O=C(N1CCC(C(F)(F)F)C1)N1CC[C@@](O)(Cn2cnc(-c3ccccc3)cc2=O)C2(CCCC2)C1 (stereo partly drawn) [Example 227, 3-(((10S)-10-Hydroxy-7-(3-(trifluoromethyl)pyrrolidine-1-carbonyl)-7-azaspiro[4.5]decan-10-yl)methyl)-6-phenylpyrimidin-4(3H)-one] | 500 to 5000 |
| O=C(N1CC[C@@](O)(Cn2cnc(N3CC4CC4C3)cc2=O)C2(CCCC2)C1)N1CCNC[C@H]1c1cc(F)ccc1F (stereo partly drawn) [Example 389, 6-(3-Aza-bicyclo[3.1.0]hexan-3-yl)-3-(((S)-7-((R)-2-(2,5-difluoro-phenyl)piperazine-1-carbonyl)-10-hydroxy-7-aza-spiro[4.5]decan-10-yl)methyl)pyrimidin-4(3H)-one] | < 500 |
| O=C(N1CC(C(F)(F)F)C1)N1CC[C@@](O)(Cn2cnc(-c3ccccc3)cc2=O)C2(CCCC2)C1 [Example 221, (S)-3-((10-Hydroxy-7-(3-(trifluoromethyl)azetidine-1-carbonyl)-7-azaspiro[4.5]decan-10-yl)methyl)-6-phenylpyrimidin-4(3H)-one] | 500 to 5000 |

— patent US20220033397A1, “PHARMACEUTICAL COMPOUNDS AND THEIR USE AS INHIBITORS OF UBIQUITIN SPECIFIC PROTEASE 19 (USP19)” (ALMAC DISCOVERY LIMITED, priority 2018, published 2022)
